Measurements published in patent US20110288314A1, “PHLOROGLUCINOL DERIVATIVES FROM ECKLONIA CAVA HAVING ANTI-HIV-1 INHIBITORY ACTIVITY” (priority 2008, published 2011).

Columns and labels:
[1] = test system: HIV-1IIIB; test: HIV-1 p24 antigen capture ELISA in H9 cells; type: cell-based; parameters: dose or concentration left out as unconfirmed; conditions: ELISA (FIG. 1D)
Description: H9 cells (3×10^6 cells/ml) were incubated in the presence or absence of HIV-1IIIB for 1 h at 37° C. Cells were washed to remove unbound viruses and resuspended at 3×10^5 cells/ml in culture medium. Aliquots of 1 ml were placed in a 24-well culture plate containing an equal volume of medium with/without 6,6′-bieckol.
AZT was treated as positive control. In order to determine the amount of virus released to the medium, HIV-1 p24 antigen capture ELISA was carried out with a commercial kit (Perkin-Elmer Life Sciences, Boston, Mass.) according to the manufacturer's instructions.

[2] = target: T1, HIV-1 reverse transcriptase (Human immunodeficiency virus type 1 group M subtype B, UniProt P04585); test: Reverse transcriptase activity assay (fluorescence RT kit, viral lysate); type: biochemical; parameters: HIV-1 RT enzyme activity inhibited: dose or concentration left out as unconfirmed; conditions: RT from cell culture supernatant
T1 construct: HIV-1 reverse transcriptase in the viral lysate; endogenous in cells; host or cells: lysate of virus particles produced by infected cell culture (viral lysate)
Description: The activity of HIV-1 reverse transcriptase in the viral lysate was evaluated using a fluorescence RT assay kit (InvitroGen) according to the manufacturer's protocol. Briefly, 20 μl of reaction mixture containing a template/primer hybrid, poly(A)/d(T)16, and dTTP as a triphosphate substrate was added to the wells of amicrotiter plate and mixed with 5 μl of viral lysate containing various concentrations of 6,6′-bieckol. After incubation at 37° C. for 1 h, the reaction was stopped by the addition of 2 μl of 200 mM EDTA to each reaction. Fluorescence intensity was measured at 480 nm (excitation) and 520 nm (emission) with a GENiosmicroplate reader (Tecan Austria GmbH, Austria) after the addition of 173 μl of fluorescent PicoGreenreagent, which selectively binds to dsDNA or DNA-RNA heteroduplexes over single-stranded nucleic acids or free nucleotides.

[3] = test system: HIV-1IIIB; test: Western blot analysis of p24 / gag proteins in HIV-1IIIB infected H9 cells; type: cell-based
Description: 1×10^6 cells/ml H9 cells were cultured in cell culture plates. Following sample treatment, plates were incubated for 2 h and infected with HIV-1IIIB at 200 CCID50. After 96 h of incubation at 37° C., cells were pelleted at 1000 rpm for 10 min and supernatant was harvested. The cells were washed 3 times with PBS and lysed with 500 μl of lysis buffer containing 50 mM Tris-HCl (pH 7.5), 0.4% Nonidet P-40, 120 mM NaCl, 1.5 mM MgCl2, 2 mM phenylmethylsulfonyl fluoride, 80 μg/ml leupeptin, 3 mM NaF, and 1 mM DTT. Hundred micrograms of total protein was used for immunoblot analysis.
Culture supernatant containing virus was filtered through 0.22 μm filter, mixed with 30% polyethylene glycol (PEG) (50% v/v) with 0.4 M NaCl, and virus particles were pelleted at 15000 rpm for 45 min. The viral pellets were lysed, resuspended in SDS sample buffer and equal volume of viral lysates (20 μl) was loaded onto SDS gel. The proteins were subjected to denaturating SDSAGE in 25 mM Tris, 192 mM glycine, 0.1% SDS with a 4% stacking, and 10% separating gel. Separated proteins were transferred onto a nitrocellulose membrane, blocked in Tris buffered saline containing 0.1% (v/v) Tween 20 (TBS-T) and 5% skim milk powder. The membrane was probed with mouse anti-p24 monoclonal antibody (1:500, SantaCruz) and horseradish peroxidase (HRP)-conjugated anti-mouse IgG secondary antibody (1:5000, SantaCruz). […]

[4] = test system: HIV-1IIIB; test: Co-cultivation assay (C8166 cells with H9 cells chronically infected with HIV-1IIIB); type: cell-based; conditions: highest concentration treated; C8166 + H9/HIV-1IIIB, 72 h
Description: 3×10^4 C8166 cells were pre-treated with various concentrations of 6,6′-bieckol for 2 h and co-cultured with 3×10^3 H9 cells chronically infected with HIV-1IIIB at 37° C. in a humidified atmosphere of 5% CO2. After 72 h of incubation, the number of syncytia formed was counted using a microscope.

[5] = test system: CEM-SS or H9 cells; test: Cell viability (MTT) assay; type: cell-based, human; conditions: up to 500 μM, 72 h
Description: H9 and H9/HIV-1IIIB cell lines were obtained through American Type of Culture Collection (Manassas, Va., USA). CEM-SS cell line from Dr. P. Nara and C8166 cell line from Dr. G. Farrar were provided by the EU Programme EVA Centre for AIDS Reagents, NIBSC, UK. CEM-SS, C8166, H9 and H9/HIV-1IIIB cell lines were grown in RPMI 1640 medium supplemented with 10% FBS, 100 μg of streptomycin per ml and 100 U of penicillin per ml. HIV-1IIIB virus stock was obtained from the culture supernatant of chronically infected H9/HIV-1IIIB cells. Cell-free virus was harvested from the supernatants by centrifugation and filtration through 0.22 μM filter. The virus stocks were stored as small aliquots at […] until use.
The cytotoxic concentrations of 6,6′-bieckol were determined by MTT assay, a method based on the reduction of 3-(4,5-dimethylthiazol-2-yl)-2,5-diphenyltetrazolium bromide (MTT). Four hundreds of microliters of medium containing CEM-SS or H9 cells were cultured into a 48-well plate at a density of 10^5 cells/ml. The plate was incubated overnight and treated with 100 μl of RPMI 1640 medium with/without 6,6′-bieckol. After 72 h of incubation, 100 μl of 500 μg/ml MTT was added to each well and the plate was incubated for another 4 h at 37° C. […] Optical density was measured at 540 nm with a microplate reader. […]

`Oc1cc(O)cc(Oc2c(O)cc(O)c3c2Oc2c(O)cc(O)c(-c4c(O)cc(O)c5c4Oc4c(O)cc(O)c(Oc6cc(O)cc(O)c6)c4O5)c2O3)c1` [6,6′-bieckol] was tested, and the “inhibition of production of p24 antigen” value [1] was “more than 90%”, the inhibition at 1 µM ([2]; 1 μM, read-out: HIV-1 RT enzyme inhibition) was 50.5% and the “HIV-1 RT enzyme activity inhibited” value [2] was 96.33%. The “protease inhibition judged from p55 gag related protein bands” value ([3]; Western blot) was “did not inhibit the protease”, the “inhibition of p24 antigen production versus AZT” value ([3]; of 6,6′-bieckol vs AZT 5 μM (FIG. 2C)) was “comparable to that of AZT” and the “inhibition of syncytia formation in co-cultivation assay” value [4] was “around 80%”. For the same compound, the cytotoxicity [5] was “no cytotoxicity”.
